In experiment [1] the target is T1, Serine/threonine-protein kinase 17B (Homo sapiens, UniProt O94768).
T1 sequence (O94768 whole entry): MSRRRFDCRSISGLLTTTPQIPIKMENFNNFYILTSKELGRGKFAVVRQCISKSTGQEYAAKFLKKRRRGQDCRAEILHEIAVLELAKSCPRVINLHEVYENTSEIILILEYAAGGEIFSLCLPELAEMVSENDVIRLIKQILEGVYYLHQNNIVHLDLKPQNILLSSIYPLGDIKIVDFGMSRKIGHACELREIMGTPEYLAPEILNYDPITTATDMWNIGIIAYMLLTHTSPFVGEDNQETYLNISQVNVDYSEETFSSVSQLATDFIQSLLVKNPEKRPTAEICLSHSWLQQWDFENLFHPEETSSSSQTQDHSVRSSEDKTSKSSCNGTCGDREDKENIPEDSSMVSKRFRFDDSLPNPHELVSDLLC
Put plainly: Inhibition of recombinant GST-tagged DRAK2 (unknown origin) autophosphorylation after 2 hrs by ADP-glo assay. A general note: In ADP-Glo the light output rises with the ADP produced.

Experiment [2] has as its target Death-associated protein kinase 3 (Homo sapiens, UniProt O43293). Put plainly: Inhibition of human DAPK3.
Experiment [3] deals with Death-associated protein kinase 2 (Homo sapiens, UniProt Q9UIK4). Put plainly: Inhibition of human DAPK2.
Death-associated protein kinase 2, sequence (Q9UIK4 whole entry): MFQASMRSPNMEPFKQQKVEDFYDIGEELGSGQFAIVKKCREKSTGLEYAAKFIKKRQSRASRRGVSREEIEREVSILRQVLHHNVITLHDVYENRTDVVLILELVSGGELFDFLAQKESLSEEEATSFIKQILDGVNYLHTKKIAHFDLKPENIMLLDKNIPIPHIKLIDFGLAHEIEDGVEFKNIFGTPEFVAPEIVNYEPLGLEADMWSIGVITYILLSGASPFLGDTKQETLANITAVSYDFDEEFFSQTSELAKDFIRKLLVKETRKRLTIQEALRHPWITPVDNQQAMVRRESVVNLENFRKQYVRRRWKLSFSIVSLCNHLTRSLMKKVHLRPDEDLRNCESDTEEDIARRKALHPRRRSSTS
Another experiment addresses Angiopoietin-1 receptor (Homo sapiens, UniProt Q02763). Put plainly: Inhibition of human TEK.
Experiment [4] deals with T2, Tyrosine-protein kinase ITK/TSK (Homo sapiens, UniProt Q08881).
T2 sequence (Q08881 whole entry): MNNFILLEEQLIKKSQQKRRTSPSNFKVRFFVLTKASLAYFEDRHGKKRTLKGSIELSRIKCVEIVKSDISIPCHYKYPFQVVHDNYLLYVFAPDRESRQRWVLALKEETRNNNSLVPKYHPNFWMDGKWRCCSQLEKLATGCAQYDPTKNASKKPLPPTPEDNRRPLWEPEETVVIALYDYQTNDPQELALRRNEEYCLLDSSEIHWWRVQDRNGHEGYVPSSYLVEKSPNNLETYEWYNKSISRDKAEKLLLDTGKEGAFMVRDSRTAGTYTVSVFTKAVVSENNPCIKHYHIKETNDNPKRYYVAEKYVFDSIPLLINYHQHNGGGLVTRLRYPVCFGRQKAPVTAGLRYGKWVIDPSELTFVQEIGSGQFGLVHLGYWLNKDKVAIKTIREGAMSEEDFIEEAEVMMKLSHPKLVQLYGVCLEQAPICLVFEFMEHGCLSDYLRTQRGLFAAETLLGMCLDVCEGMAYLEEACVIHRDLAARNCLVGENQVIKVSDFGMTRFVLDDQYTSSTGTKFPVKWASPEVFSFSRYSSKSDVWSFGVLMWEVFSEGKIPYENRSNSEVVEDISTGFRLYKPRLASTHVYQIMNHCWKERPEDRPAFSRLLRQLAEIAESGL
Description: Inhibition of human ITK.

The target in experiment [5] is T3, Serine/threonine-protein kinase 17A (Homo sapiens, UniProt Q9UEE5).
T3 sequence (Q9UEE5 whole entry): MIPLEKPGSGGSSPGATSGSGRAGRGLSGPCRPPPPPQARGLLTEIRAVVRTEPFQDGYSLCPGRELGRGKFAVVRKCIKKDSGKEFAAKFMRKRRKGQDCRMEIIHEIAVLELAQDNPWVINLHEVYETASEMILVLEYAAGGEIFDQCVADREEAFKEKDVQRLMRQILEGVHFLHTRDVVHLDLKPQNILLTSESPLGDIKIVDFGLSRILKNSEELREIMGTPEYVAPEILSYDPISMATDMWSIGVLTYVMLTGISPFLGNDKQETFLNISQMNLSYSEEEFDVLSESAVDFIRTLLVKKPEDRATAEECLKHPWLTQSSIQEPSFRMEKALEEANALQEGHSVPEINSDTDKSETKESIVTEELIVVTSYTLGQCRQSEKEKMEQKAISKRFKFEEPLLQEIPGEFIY
Description: Inhibition of human DRAK1.

Experiment [6] addresses Tyrosine-protein kinase BTK (Homo sapiens, UniProt Q06187). Put plainly: Inhibition of human BTK.
Experiment [7] concerns the target Cyclin-dependent kinase 5 (Homo sapiens, UniProt Q00535). Put plainly: Inhibition of human CDK5.
For experiment [8], the target named is Glycogen synthase kinase-3 beta (Homo sapiens, UniProt P49841). Description: Inhibition of human GSK3beta.
Glycogen synthase kinase-3 beta, sequence (P49841 whole entry): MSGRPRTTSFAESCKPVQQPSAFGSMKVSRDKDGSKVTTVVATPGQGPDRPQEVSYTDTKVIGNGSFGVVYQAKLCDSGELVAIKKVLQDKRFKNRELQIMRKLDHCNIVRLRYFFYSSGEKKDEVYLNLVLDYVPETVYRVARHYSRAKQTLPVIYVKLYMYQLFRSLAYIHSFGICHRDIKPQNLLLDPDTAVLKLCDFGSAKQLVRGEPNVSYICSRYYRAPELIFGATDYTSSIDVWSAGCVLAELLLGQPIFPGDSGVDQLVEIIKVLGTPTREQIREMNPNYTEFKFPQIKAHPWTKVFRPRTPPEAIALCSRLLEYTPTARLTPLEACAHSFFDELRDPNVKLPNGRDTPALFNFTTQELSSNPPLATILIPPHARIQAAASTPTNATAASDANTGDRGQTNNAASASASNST
The target in the next experiment is T4, Aurora kinase A (Homo sapiens, UniProt O14965).
T4 sequence (O14965 whole entry): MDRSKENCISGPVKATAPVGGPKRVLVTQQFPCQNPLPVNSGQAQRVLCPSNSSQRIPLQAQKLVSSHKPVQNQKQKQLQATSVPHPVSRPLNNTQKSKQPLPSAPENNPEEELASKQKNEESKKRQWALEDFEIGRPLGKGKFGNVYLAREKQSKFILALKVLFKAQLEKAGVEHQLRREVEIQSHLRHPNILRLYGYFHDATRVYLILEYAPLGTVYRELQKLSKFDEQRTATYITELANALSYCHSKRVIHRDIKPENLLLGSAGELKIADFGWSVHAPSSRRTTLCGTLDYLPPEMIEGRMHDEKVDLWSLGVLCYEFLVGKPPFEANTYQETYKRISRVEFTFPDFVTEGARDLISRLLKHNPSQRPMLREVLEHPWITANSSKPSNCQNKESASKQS
Put plainly: Inhibition of human AURORA-A.

In experiment [9] the target is Tyrosine-protein kinase Blk (Homo sapiens, UniProt P51451). Put plainly: Inhibition of human BLK.
Tyrosine-protein kinase Blk, sequence (P51451 whole entry): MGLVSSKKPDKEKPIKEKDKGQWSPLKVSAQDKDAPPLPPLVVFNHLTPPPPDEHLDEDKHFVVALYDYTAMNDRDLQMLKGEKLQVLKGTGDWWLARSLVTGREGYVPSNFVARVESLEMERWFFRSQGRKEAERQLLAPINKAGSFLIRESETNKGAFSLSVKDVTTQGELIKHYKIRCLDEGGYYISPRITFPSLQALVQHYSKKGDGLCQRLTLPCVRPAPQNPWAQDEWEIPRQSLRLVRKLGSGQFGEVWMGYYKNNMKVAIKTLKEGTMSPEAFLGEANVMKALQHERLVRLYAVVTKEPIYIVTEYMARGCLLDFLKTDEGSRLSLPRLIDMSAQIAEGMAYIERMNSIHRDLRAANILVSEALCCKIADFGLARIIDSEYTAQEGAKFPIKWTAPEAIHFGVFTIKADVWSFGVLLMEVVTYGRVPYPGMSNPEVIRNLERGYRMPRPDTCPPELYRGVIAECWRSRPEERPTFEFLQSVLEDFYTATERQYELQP
Experiment [10] deals with Tyrosine-protein kinase SYK (Homo sapiens, UniProt P43405). Description: Inhibition of human SYK.
Experiment [11] has as its target Cyclin-dependent kinase 6 (Homo sapiens, UniProt Q00534). Put plainly: Inhibition of human CDK6.
Experiment [12] deals with T5, Tyrosine-protein kinase JAK3 (Homo sapiens, UniProt P52333).
T5 sequence (P52333 whole entry): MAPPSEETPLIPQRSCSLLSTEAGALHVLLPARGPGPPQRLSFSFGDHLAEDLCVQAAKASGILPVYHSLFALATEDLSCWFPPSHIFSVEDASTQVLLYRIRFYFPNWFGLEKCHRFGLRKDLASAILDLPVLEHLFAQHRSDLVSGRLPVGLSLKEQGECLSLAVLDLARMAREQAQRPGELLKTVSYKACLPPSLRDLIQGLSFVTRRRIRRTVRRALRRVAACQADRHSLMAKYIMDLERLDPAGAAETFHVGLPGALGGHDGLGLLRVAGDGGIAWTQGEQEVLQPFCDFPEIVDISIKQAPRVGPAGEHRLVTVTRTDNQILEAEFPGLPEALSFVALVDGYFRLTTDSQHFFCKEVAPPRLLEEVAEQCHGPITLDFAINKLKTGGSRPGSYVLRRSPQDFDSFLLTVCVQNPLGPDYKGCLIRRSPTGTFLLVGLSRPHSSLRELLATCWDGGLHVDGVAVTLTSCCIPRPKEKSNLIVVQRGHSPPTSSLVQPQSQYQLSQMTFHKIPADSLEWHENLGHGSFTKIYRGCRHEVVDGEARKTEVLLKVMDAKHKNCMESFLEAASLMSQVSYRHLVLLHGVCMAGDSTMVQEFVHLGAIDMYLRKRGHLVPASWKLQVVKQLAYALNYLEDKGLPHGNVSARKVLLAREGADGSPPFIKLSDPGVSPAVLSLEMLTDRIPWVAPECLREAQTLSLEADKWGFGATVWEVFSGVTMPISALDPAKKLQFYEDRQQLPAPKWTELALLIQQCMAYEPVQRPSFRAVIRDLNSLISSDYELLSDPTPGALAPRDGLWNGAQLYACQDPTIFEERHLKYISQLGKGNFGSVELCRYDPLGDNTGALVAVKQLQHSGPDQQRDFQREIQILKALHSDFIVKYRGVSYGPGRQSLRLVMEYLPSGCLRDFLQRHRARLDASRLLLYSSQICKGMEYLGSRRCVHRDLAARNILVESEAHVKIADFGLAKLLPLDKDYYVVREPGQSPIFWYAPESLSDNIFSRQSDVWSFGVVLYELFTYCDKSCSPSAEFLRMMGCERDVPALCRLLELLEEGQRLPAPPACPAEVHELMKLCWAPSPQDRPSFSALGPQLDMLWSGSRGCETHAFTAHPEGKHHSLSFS
Description: Inhibition of human JAK3.

Experiment [13] addresses Cyclin-dependent kinase 4 (Homo sapiens, UniProt P11802). Description: Inhibition of human CDK4.
Experiment [14] concerns the target Tyrosine-protein kinase JAK2 (Homo sapiens, UniProt O60674). Put plainly: Inhibition of human JAK2.
Experiment [15] concerns the target Death-associated protein kinase 1 (Homo sapiens, UniProt P53355). Description: Inhibition of human DAPK1.
Experiment [16] addresses Cyclin-dependent kinase 9 (Homo sapiens, UniProt P50750). Description: Inhibition of human CDK9.

Death-associated protein kinase 3, sequence (O43293 whole entry): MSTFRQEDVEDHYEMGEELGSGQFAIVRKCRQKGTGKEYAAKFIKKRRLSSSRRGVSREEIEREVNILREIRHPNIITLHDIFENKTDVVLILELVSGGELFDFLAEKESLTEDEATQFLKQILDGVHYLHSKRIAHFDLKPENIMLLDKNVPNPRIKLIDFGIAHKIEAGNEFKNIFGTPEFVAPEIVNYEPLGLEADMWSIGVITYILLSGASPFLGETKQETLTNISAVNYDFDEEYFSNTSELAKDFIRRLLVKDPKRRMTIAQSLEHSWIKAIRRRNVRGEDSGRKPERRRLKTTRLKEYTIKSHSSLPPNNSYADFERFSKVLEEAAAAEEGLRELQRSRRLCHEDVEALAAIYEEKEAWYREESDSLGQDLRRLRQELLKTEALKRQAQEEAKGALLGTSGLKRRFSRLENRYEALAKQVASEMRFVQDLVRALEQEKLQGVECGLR
Angiopoietin-1 receptor, sequence (Q02763 whole entry): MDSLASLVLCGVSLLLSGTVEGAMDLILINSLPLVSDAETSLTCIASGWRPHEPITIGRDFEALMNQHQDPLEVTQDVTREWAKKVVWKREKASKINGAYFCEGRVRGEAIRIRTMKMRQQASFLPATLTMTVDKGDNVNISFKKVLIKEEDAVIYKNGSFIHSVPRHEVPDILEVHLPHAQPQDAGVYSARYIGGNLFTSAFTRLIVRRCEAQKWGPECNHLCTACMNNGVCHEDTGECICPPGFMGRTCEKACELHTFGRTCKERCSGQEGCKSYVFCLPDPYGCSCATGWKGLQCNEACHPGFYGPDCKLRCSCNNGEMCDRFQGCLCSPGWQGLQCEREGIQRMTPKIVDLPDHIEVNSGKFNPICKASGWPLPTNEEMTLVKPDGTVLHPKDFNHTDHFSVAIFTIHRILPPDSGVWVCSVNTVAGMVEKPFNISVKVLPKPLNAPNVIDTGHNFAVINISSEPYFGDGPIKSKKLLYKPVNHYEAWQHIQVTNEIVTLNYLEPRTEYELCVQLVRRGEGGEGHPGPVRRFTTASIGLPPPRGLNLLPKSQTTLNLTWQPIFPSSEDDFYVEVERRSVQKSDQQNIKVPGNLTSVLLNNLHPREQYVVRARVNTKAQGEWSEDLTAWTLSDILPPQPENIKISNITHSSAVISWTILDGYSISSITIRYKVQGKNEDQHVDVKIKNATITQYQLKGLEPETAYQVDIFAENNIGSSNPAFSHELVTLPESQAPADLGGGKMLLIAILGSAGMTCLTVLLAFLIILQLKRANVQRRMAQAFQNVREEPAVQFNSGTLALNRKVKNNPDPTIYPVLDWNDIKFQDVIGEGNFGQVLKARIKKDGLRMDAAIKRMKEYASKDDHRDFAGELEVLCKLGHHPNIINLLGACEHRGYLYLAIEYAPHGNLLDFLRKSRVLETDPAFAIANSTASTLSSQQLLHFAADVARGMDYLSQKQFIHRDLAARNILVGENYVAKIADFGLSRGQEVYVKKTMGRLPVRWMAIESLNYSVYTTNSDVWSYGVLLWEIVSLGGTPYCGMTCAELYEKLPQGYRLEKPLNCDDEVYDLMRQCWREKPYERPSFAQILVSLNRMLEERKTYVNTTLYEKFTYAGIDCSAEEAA
Cyclin-dependent kinase 5, sequence (Q00535 whole entry): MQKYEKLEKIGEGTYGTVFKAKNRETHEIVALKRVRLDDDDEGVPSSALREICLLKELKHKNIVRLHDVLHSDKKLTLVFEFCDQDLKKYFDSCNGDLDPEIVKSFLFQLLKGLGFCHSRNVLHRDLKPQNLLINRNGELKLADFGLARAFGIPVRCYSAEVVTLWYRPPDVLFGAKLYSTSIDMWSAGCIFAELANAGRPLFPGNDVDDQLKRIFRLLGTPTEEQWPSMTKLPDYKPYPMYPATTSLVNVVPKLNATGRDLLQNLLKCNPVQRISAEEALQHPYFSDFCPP
Tyrosine-protein kinase BTK, sequence (Q06187 whole entry): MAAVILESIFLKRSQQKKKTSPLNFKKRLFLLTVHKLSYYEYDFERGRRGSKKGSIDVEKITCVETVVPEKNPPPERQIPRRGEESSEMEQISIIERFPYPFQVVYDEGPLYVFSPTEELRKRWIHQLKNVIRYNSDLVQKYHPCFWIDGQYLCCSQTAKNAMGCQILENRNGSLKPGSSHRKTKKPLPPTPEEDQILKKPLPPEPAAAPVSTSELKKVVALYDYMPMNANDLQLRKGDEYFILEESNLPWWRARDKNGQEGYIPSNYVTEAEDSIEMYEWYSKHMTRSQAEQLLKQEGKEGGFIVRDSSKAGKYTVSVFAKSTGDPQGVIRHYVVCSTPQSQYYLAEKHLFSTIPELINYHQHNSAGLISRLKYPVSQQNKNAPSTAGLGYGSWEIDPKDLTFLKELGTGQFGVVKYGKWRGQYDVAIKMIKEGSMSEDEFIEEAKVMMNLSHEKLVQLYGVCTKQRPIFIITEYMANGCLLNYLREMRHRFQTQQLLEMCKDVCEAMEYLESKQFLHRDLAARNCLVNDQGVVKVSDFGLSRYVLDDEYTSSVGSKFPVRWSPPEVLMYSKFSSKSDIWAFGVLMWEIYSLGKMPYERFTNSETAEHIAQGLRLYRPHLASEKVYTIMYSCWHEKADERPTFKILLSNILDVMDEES
Cyclin-dependent kinase 4, sequence (P11802 whole entry): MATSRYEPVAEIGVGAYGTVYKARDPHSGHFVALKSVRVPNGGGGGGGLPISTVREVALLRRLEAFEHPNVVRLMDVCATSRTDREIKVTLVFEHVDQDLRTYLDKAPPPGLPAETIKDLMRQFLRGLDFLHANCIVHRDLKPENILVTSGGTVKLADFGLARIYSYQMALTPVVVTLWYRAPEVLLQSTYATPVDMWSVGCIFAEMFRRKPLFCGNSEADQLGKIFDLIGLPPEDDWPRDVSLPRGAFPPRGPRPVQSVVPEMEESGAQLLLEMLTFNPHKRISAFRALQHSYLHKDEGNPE
Cyclin-dependent kinase 6, sequence (Q00534 whole entry): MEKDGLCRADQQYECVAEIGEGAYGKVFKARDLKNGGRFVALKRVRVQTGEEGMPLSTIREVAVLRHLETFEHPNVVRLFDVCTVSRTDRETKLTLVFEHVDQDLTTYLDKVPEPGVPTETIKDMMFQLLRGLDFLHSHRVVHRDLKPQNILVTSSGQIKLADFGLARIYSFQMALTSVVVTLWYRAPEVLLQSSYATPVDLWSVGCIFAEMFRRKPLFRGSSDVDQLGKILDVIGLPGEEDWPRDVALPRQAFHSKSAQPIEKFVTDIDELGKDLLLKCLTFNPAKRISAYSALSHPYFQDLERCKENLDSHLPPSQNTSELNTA
Cyclin-dependent kinase 9, sequence (P50750 whole entry): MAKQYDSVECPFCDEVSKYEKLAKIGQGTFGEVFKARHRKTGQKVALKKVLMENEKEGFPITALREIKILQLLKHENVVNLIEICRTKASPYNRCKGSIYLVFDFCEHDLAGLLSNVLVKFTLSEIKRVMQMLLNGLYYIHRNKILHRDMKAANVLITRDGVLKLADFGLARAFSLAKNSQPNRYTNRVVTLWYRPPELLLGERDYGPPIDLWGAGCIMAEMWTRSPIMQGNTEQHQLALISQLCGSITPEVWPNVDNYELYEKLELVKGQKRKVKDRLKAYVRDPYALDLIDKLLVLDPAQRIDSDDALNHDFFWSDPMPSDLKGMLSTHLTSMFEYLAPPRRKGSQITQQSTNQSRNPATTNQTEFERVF

Take `O=C1/C(=C/c2ccc(O)c(O)c2)Cc2ccccc21`: the IC50 in experiment [1] came to 13.3 µM. With `O=C1/C(=C/c2ccc(O)c(O)c2)Oc2ccccc21`, the IC50 in experiment [1] lay within 3.08 to 3.15 µM. Still for that read-out and setting: the same measure for `O=C1/C(=C/c2ccc(O)cc2)Oc2ccccc21`: 53 µM. With `O=C1/C(=C/c2ccc(F)cc2)Oc2ccccc21`, in experiment [1], the half-inhibitory concentration (IC50) turned out to be 40.5 µM. With `COc1cc(/C=C2\Oc3ccccc3C2=O)ccc1O`, the IC50 in experiment [1] amounted to 3.11 µM. On the same count and under the same terms, with `CCOc1cc(/C=C2\Oc3ccccc3C2=O)ccc1O` the figure was 3.24 µM.

With `COc1ccc(-c2cnc3scc(NC(=O)C4CCCCC4)c3c2)cc1OC`, the 50% inhibitory concentration (IC50) in [2] amounted to 39.8 µM; in [1], 1.31 µM; in experiment [3], 55 µM.

As for `O=C1/C(=C/c2ccc(CO)cc2)Oc2ccccc21`, in [1], the half-maximal inhibitory concentration (IC50) turned out to be 11.1 µM. Regarding `O=C1/C(=C/c2ccco2)Oc2ccccc21`, the 50% inhibitory concentration (IC50) in experiment [1] stood at 64 µM. Still for that read-out and setting: the same measure for `O=C1c2ccccc2OC1Cc1ccc(O)c(O)c1` (stereo not given): 27.8 µM; for `CCOc1cc(/C=C2\Oc3ccc(Br)cc3C2=O)ccc1O`: 28.1 µM. The same measure, in the same setting: with `COc1ccc(/C=C2\Oc3ccccc3C2=O)cc1O` the figure was 12.1 µM; with `CCOc1cc(/C=C2\Oc3ccc(F)cc3C2=O)ccc1O`, 1.05 µM; with `O=C1/C(=C/c2cccnc2)Oc2ccccc21`, 39.4 µM. For `O=C1/C(=C/c2ccc(O)c(O)c2)Oc2ccc(O)cc21`, the IC50 in experiment [1] turned out to be 0.99 µM. On the same count and under the same terms, the same measure for `CCCCOc1ccc2c(c1)C(=O)/C(=C/c1ccc(O)c(OCC)c1)O2`: 3.66 µM; for `CC(C)Oc1cc(/C=C2\Oc3ccccc3C2=O)ccc1O`: 17.4 µM. In the case of `CCOc1cc(/C=C2\Oc3c(OC)cccc3C2=O)ccc1O`, the IC50 in experiment [1] came out at 1.29 µM. For `CCOc1cc(/C=C2\Oc3ccc(I)cc3C2=O)ccc1O`, the IC50 in experiment [1] was 42.5 µM.

`CCOc1ccc2c(c1)C(=O)/C(=C/c1ccc(O)c(OCC)c1)O2`: in experiment [1], the IC50 was 0.41 µM.

Turning to `CCOc1cc(/C=C2\Oc3cc(Cl)ccc3C2=O)ccc1O`, the IC50 in experiment [1] came out at 40.5 µM.

Take `CCOc1cc(/C=C2\Oc3ccc(Cl)cc3C2=O)ccc1O`: the half-inhibitory concentration (IC50) in [1] was determined as 13.7 µM.

Regarding `COc1ccc2c(c1)C(=O)/C(=C/c1ccc(O)c(O)c1)O2`, the concentration for half-maximal inhibition (IC50) in [2] amounted to 12.1 µM; against Angiopoietin-1 receptor it was 0.51 µM; in [1], 0.25 µM; in experiment [4], 2.19 µM; in experiment [5], 5.81 µM; in [6] it was 5.03 µM. For the same compound, the 50% inhibitory concentration (IC50) was determined as 8.84 µM in [7]; 5.3 µM in experiment [8]; 6.34 µM in [3]; 1.05 µM on Aurora kinase A; 3.05 µM in experiment [9]. With `COc1cc(/C=C2\Oc3ccccc3C2=O)cc(OC)c1O`, the concentration for half-maximal inhibition (IC50) in experiment [1] came to 6.65 µM.

Consider `CCOc1cc(/C=C2\Oc3cccc(OC)c3C2=O)ccc1O`, for which the half-inhibitory concentration (IC50) in experiment [1] was determined as 7.26 µM. On to `CCOc1cc(/C=C2\Oc3ccc(OC(C)=O)cc3C2=O)ccc1O`, for which the 50% inhibitory concentration (IC50) in [1] worked out at 0.69 µM. For the compound `CCOc1cc(/C=C2\Oc3cc(F)ccc3C2=O)ccc1O`, in experiment [1], the IC50 was 60.4 µM. For the compound `CCCCOc1cc(/C=C2\Oc3ccccc3C2=O)ccc1O`, the 50% inhibitory concentration (IC50) in experiment [1] came to 29.1 µM. Still for that read-out and setting: with `CCOc1cc(/C=C2\Oc3cc(OC)ccc3C2=O)ccc1O` the figure was 2.44 µM; with `CCCOc1cc(/C=C2\Oc3ccccc3C2=O)ccc1O`, 5.37 µM; with `O=C(c1ccc(O)c(O)c1)c1cc2ccccc2o1`, 22.9 µM. With `CCOc1cc(/C=C2\Oc3ccc(C)cc3C2=O)ccc1O`, in experiment [1], the half-inhibitory concentration (IC50) came out at 0.96 µM. Turning to `CCOc1cc(/C=C2\Oc3ccc(N)cc3C2=O)ccc1O`, in experiment [1], the IC50 came to 7.16 µM. Still for that read-out and setting: the same measure for `COc1ccc(/C=C2\Oc3ccccc3C2=O)cc1OC` [3',4'-DIMETHOXY-AURONE]: 21.4 µM.

For `O=C1/C(=C/c2ccccc2)Oc2ccccc21` [(Z)-AURONE], in [1], the IC50 turned out to be 24.6 µM. Regarding `O=C1/C(=C/c2ccc(O)c(O)c2)Oc2cc(O)ccc21` [SULFURETIN], the IC50 was found to be 4.63 µM in experiment [10]; 2.33 µM in experiment [2]; 0.95 µM on Angiopoietin-1 receptor; 1.02 µM in experiment [1]; 2.44 µM in experiment [11]; 2.02 µM in experiment [4]. For the same compound, the half-inhibitory concentration (IC50) was found to be 5.85 µM in experiment [5]; 4.26 µM in [12]; 6.02 µM in [6]; 1.5 µM in [7]; 1.95 µM in experiment [8]; 2.82 µM in experiment [13]. Besides, the concentration for half-maximal inhibition (IC50) is 9.32 µM in experiment [14]; 3.07 µM in [3]; 13.2 µM in [15]; 0.85 µM against Aurora kinase A; 2.16 µM in [16]; 2.88 µM in [9].

In general, IC50 refers to the midpoint of a concentration-inhibition curve.

The values are drawn from ChEMBL document CHEMBL4014275, “Discovery of benzofuran-3(2H)-one derivatives as novel DRAK2 inhibitors that protect islet β-cells from apoptosis” (Eur J Med Chem, 2017).
